Laboratory results reported in ChEMBL document CHEMBL1131520, “A novel (benzodifuranyl)aminoalkane with extremely potent activity at the 5-HT2A receptor” (J Med Chem, 1998).
pKi: −log10 of the molar value.

How the values were obtained:
[1] = biological target: 5-hydroxytryptamine receptor 2A (Rattus norvegicus, UniProt P14842); assay: […] measured for 5-hydroxytryptamine 2A receptor using [3H]-MDL- 100,907 as radioligand in rat cortical homogenates.; format: tissue-based
[2] = biological target: 5-hydroxytryptamine receptor 2B (Homo sapiens, UniProt P41595); assay: Binding activity against cloned human 5-hydroxytryptamine 2B receptor using [3H]5-HT as the radioligand.
[3] = biological target: T1, 5-hydroxytryptamine receptor 2C (Homo sapiens, UniProt P28335); assay: Binding activity against cloned human 5-hydroxytryptamine 2C receptor using [125I]DOI as the radioligand.
T1 sequence (P28335 whole entry): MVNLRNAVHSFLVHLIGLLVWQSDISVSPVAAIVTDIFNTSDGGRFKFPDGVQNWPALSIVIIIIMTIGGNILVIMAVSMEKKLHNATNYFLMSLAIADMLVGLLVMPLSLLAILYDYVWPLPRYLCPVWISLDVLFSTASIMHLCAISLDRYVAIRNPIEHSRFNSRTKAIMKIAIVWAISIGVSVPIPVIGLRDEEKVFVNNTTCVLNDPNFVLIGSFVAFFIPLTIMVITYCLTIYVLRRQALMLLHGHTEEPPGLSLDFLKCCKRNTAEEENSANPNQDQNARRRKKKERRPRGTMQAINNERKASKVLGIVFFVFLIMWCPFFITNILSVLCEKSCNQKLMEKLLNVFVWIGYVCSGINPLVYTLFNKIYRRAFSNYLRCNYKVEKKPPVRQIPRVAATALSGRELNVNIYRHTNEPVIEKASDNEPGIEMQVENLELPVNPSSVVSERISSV

Rattus norvegicus [4] = species on record: Rattus norvegicus; assay: Drug discrimination studies in rats(12) expressed as ED50 value; format: functional
Rattus norvegicus [5] = species on record: Rattus norvegicus; assay: Drug discrimination studies in rats(7-15) expressed as ED50 value; format: functional
[6] = biological target: 5-hydroxytryptamine receptor 2A (Homo sapiens, UniProt P28223); assay: Binding activity against cloned human 5-hydroxytryptamine 2A receptor using [125I]DOI as the radioligand.
Rattus norvegicus [7] = species on record: Rattus norvegicus; assay: Drug discrimination studies in rats(16-19) expressed as ED50 value; format: functional
Rattus norvegicus [8] = species on record: Rattus norvegicus; assay: Drug discrimination studies in rats(9-12) expressed as ED50 value; format: functional
Rattus norvegicus [9] = species on record: Rattus norvegicus; assay: Drug discrimination studies in rats(22) expressed as ED50 values; format: functional

Sequence of 5-hydroxytryptamine receptor 2A (Rattus norvegicus, UniProt P14842) (P14842 whole entry): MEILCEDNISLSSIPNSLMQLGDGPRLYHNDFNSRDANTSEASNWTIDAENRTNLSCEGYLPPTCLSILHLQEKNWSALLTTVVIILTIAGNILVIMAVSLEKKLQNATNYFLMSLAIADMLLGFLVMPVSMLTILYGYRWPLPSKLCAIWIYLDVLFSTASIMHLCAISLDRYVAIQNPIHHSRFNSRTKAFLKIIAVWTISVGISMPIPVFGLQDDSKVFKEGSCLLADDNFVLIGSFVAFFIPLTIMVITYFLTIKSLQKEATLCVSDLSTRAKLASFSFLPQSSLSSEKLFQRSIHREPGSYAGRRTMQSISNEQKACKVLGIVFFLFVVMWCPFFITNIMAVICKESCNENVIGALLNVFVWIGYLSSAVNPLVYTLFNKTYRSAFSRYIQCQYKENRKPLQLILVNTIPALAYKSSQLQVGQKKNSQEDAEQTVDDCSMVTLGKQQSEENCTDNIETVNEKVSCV
Sequence of 5-hydroxytryptamine receptor 2B (P41595 whole entry): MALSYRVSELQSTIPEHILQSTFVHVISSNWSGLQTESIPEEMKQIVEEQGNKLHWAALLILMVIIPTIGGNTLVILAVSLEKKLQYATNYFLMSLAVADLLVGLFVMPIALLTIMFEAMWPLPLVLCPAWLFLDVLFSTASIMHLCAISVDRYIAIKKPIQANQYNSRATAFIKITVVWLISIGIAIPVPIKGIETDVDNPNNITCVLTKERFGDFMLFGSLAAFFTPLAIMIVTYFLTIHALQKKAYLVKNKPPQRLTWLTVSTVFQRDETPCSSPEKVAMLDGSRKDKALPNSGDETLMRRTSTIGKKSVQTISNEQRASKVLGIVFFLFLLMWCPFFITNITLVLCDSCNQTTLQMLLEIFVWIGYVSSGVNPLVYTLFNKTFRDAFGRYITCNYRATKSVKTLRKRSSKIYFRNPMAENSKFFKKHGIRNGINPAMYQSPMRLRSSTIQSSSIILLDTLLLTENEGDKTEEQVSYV
Sequence of 5-hydroxytryptamine receptor 2A (Homo sapiens, UniProt P28223) (P28223 whole entry): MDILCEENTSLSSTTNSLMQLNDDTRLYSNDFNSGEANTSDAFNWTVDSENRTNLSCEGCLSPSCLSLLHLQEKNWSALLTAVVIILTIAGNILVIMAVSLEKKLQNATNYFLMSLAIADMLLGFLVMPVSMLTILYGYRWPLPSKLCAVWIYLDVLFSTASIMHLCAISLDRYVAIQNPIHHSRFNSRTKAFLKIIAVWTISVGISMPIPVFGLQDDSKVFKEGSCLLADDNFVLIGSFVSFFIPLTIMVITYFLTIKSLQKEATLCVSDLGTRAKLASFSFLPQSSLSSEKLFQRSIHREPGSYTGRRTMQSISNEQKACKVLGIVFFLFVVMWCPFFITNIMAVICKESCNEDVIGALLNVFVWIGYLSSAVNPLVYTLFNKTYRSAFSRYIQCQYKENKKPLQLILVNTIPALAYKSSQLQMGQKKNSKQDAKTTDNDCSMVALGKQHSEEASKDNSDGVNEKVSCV

SMILES | pKi [1] | pKi [2] | pKi [3] | other results
CC(N)Cc1c2c(c(Br)c3c1OCC3)OCC2 (configuration not stated) | 7.83 | – | – | –
CC(N)Cc1c2ccoc2c(Br)c2ccoc12 (configuration not stated) | 9.64 | – | – | –
COc1cc(CC(C)N)c(OC)cc1I (configuration not stated) | – | 7.37 | 8.74 | ED50 (Rattus norvegicus [4]): 0.3 µmol/kg
CC(N)Cc1c2c(c(Br)c3c1OCC3)OCC2 (racemic) | – | – | – | ED50 (Rattus norvegicus [5]): 0.061 µmol/kg
CC(N)Cc1c2ccoc2c(Br)c2ccoc12 (racemic) | – | 9.72 | 10.70 | pKi [6]: 10.40; ED50 (Rattus norvegicus [7]): 0.022 µmol/kg; ED50 (Rattus norvegicus [8]): 0.039 µmol/kg
CCN(CC)C(=O)[C@@H]1C=C2c3cccc4[nH]cc(c34)C[C@H]2N(C)C1 [LYSERGIDE] | – | – | – | ED50 (Rattus norvegicus [9]): 0.04 µmol/kg
